Converted amounts (≈) assume the structure as drawn.
Key:
KB (human cancer cell) = test: Cytotoxicity assay against KB cells in vitro; type: cell-based; conditions: NA@20 given for inactive
[1] = tested on: KB-VIN (multidrug-resistant strain); test: Cytotoxicity assay against KB-VIN cells in vitro; type: cell-based, human
NADPH oxidase (NOX) [2] = target: NADPH oxidase (NOX) (Mus musculus, UniProt Q61093); type: biochemical, murine; conditions: ROS production triggered with NADPH (200 μM), 1-50 μM test drug, BV2 cell lysate; mean ± S.E.M., 3-6 experiments; read-out: IC50 (μM) in NOX activity from BV2 cell lysate
[3] = target: T1, nitric oxide synthase (NOS) (Mus musculus, UniProt P29477); test: NOS activity: LPS-induced NO production in murine microglial cells (BV2); conditions: read-out: IC50 (μM) in NOS; LPS-induced NO production in BV2 cells, 1-50 μM test drug; mean ± S.E.M.
T1 sequence (P29477 1-1144): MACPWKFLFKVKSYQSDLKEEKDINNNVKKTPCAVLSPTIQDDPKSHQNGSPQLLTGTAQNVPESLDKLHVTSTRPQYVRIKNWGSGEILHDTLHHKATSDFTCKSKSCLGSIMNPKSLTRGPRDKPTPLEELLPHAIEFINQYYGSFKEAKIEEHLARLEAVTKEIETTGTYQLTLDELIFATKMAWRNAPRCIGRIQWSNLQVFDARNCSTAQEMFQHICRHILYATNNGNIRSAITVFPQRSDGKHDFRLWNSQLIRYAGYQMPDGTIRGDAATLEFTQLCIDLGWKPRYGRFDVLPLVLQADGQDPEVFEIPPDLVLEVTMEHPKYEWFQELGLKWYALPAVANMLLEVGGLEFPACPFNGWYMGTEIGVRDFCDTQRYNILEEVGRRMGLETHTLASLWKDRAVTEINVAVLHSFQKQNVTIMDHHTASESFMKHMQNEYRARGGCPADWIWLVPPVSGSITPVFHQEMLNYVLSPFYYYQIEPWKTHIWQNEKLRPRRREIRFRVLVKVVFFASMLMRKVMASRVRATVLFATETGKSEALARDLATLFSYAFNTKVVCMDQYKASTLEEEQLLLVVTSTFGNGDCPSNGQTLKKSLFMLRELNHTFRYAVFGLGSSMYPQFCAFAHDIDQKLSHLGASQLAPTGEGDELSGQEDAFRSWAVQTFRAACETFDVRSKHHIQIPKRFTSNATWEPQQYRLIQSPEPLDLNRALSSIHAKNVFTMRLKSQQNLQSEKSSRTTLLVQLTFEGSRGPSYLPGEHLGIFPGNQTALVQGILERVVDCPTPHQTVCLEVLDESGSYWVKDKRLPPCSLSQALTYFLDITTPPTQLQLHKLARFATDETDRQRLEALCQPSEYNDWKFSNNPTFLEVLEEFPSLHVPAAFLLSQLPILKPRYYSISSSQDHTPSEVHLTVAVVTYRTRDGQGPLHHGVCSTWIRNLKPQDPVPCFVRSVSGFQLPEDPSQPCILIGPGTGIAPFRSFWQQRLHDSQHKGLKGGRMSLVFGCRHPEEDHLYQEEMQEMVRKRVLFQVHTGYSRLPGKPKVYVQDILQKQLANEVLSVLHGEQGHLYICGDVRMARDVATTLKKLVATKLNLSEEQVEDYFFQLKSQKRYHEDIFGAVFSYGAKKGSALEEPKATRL
Experimental: Microglial cell culture and measurements of mitric oxide (NO). The murine microglial cell line (BV2) was cultured, and the production of NO was measured by the methods as previously described (Wang, Y. H.; Wang, W. Y.; Chang, C. C.; Liou, K. T.; Sung, Y. J.; Liao, J. F.; Chen, C. F.; Chang, S.; Hou, Y. C.; Chou, Y. C.; Shen, Y. C. J. Biomed. Sci. 2006, 13, 127-141).

NADPH oxidase (NOX) [4] = target: NADPH oxidase (NOX) (Homo sapiens, UniProt P04839); type: cell-based; conditions: ROS production triggered with fMLP (2 μM), 1-50 μM test drug, peripheral human neutrophils; mean ± S.E.M.; read-out: IC50 (μM) in NOX fMLP-induced NOX activation in PMN
[5] = tested on: Daoy (human medulloblastoma); test: MTT cytotoxicity assay, Daoy; type: cell-based; conditions: Daoy cell line
Experimental: (§1) Compounds II-7-II-9, II-13, II-14, II-20, II-21, II-25-II-33, and II-36 were assayed for cytotoxic activity against Doay (human medulloblastoma), Hep2 (human laryngeal carcinoma), MCF-7 (human breast adenocarcinoma), and Hela (human cervical epitheloid carcinoma) cell lines, using a MTT assay method.

[6] = tested on: Hep2 (human laryngeal carcinoma); test: MTT cytotoxicity assay, Hep2; type: cell-based; conditions: Hep2 cell line
Experimental: as §1

[7] = tested on: MCF-7 (human breast adenocarcinoma); test: MTT cytotoxicity assay, MCF-7; type: cell-based; conditions: MCF-7 cell line
Experimental: as §1

[8] = tested on: Hela (human cervical epitheloid carcinoma); test: MTT cytotoxicity assay, Hela; type: cell-based; conditions: Hela cell line
Experimental: as §1

[9] = tested on: P-388 murine leukemia cells; conditions: in vitro, previous studies; cited from earlier work

Compound | EC50 (KB (human cancer cell)) | EC50 [1] | IC50 (NADPH oxidase (NOX) [2]) | IC50 [3] | IC50 (NADPH oxidase (NOX) [4]) | ED50 (μg/mL) Daoy [5] | ED50 (μg/mL) Hep2 [6] | ED50 (μg/mL) MCF-7 [7] | ED50 (μg/mL) Hela [8] | cytotoxicity against P-388 murine leukemia cells [9] | EC50 (μM) KB (KB (human cancer cell)) | EC50 (μM) KB-VIN [1]
C=C(CC[C@@H](C)[C@H]1CC[C@H]2C3=C(C(=O)[C@H](O)[C@]12C)[C@@]1(C)CC[C@@H](O)[C@@H](C)[C@@H]1CC3=O)C(C)C(=O)O (stereo partly drawn) [Compound I-13, zhankuic acid C] | 15.5 µM | 6.4 µM | 40.3 ± 3.5 µM | 16.2 ± 0.9 µM |  |  |  |  |  |  |  | 
C=C(CC[C@@H](C)[C@H]1CC[C@H]2C3=C(C(=O)C[C@]12C)[C@@]1(C)CCC(=O)[C@@H](C)[C@@H]1CC3)C(C)C(=O)O (stereo partly drawn) [Compound I-15, antcin A] | 4.9 µM | 10 µM | 45.9 ± 7.9 µM | 4.1 ± 0.5 µM | 29.2 ± 6.7 µM | 13.2 µg/mL (≈ 29 µM) | — (ED50 > 20 μg/mL) | 13.3 µg/mL (≈ 29.3 µM) | — (ED50 > 20 μg/mL) |  |  | 
C=C(C)C#Cc1c(OC)cc(OC)c(OC)c1C [II-9, antrocamphin A] |  |  | 50.1 ± 3.3 µM | 7.2 ± 1 µM | 15.1 ± 4.1 µM | 5.9 µg/mL (≈ 24 µM) | 10.5 µg/mL (≈ 42.6 µM) | 3.4 µg/mL (≈ 13.8 µM) | 6.9 µg/mL (≈ 28 µM) |  |  | 
C=C(CC[C@@H](C)[C@H]1CC[C@H]2C3=C(C(=O)C[C@]12C)[C@@]1(C)CCC(=O)[C@@H](C)[C@@H]1CC3=O)C(C)C(=O)O (stereo partly drawn) [zhankuic acid A] |  |  |  |  |  |  |  |  |  | significant cytotoxicity |  | 
C=C(CC[C@@H](C)[C@H]1CC[C@H]2C3=C(C(=O)[C@H](O)[C@]12C)[C@@]1(C)CC[C@@H](O)[C@@H](C)[C@@H]1CC3=O)C(C)C(=O)O (stereo partly drawn) [zhankuic acid C] |  |  |  |  |  |  |  |  |  | significant cytotoxicity |  | 
methyl antcinate H [Compound I-18] |  |  | 16 ± 8.1 µM | 2.5 µM | 18.1 ± 5.9 µM |  |  |  |  |  | NA@20 | NA@20
